Like-named read-outs stand apart in the source and are kept apart here.
Experiments:
Assay type in all cases: cell-based
[1] = tested on: Staphylococcus aureus SA-K2191 (Msr A overexpressing); assay: Msr A efflux pump inhibition, broth checkerboard combination with erythromycin
Method: Combination studies were performed by a broth checkerboard method. A series of two-fold dilutions of test Erythromycin in Muller Hinton Broth (pH 7.0) was tested in combination with twofold dilutions of boeravinone B in 96-well microtiter plates. The final concentrations of erythromycin ranged from 0.03 mg/L/ml to 64 mg/L and for boeravinone B from 0.8 mg/L to 50 mg/L. MsrA overexpressing S. aureus derivative (RN4220) obtained by transforming with pSK265 into which the gene for MsrA has been cloned from S. aureus ATCC 29213 (American type culture collection Manassas, Va., USA) was kindly gifted by Dr G. W. Kaatz (Wayne State University School of Medicine, Detroit, Mich., USA). Bacterial inocula were prepared by adjusting the inoculum density of the overnight grown Staphylococcus aureus SA-K2191 (Msr A overexpressing) to 0.5 McFarland (˜1.5×10^8 CFU/mL of Escherichia coli). These inocula were diluted 1:100 in sterile normal saline and 100 μl of these diluted inocula was dispensed in each well. The final bacterial inoculum reached in each well was equal 5×10^5 CFU/mL. The plates were incubated at 37° C. for 24 hrs. The MIC was read visually as the lowest concentration of erythromycin inhibiting the growth of bacteria as evident from the absence of turbidity. […]

[2] = tested on: Staphylococcus aureus 1199B (Nor A overexpressing); assay: Nor A efflux pump inhibition, broth checkerboard combination with ciprofloxacin; details: for MEC4 (minimum effective concentration of compound that brings about 4 fold reduction in the MIC of Ciprofloxacin): in combination with ciprofloxacin
Method: Combination studies were performed by a broth checkerboard method A series of twofold dilutions of test ciprofloxacin in Muller Hinton Broth (pH 7.0) was tested in combination with twofold dilutions of boeravinone B in 96-well microtiter plates. The final concentrations of ciprofloxacin ranged from 0.03 mg/L/ml to 64 mg/L and for boeravinone B from 0.8 mg/L to 50 mg/L. Piperine at a same concentration range as that of boeravinone B was used as standard EPI. Nor A overexpressing derivative of a clinical isolate (SA-1199B) obtained from S. aureus strain ATCC No. 29213 (American Type Culture Collection Manassas, Va., USA) was kindly gifted by Dr G. W. Kaatz (Wayne State University School of Medicine, Detroit, Mich., USA). Bacterial inocula were prepared by adjusting the inoculum density of the overnight grown Staphylococcus aureus 1199B (Nor A overexpressing) to 0.5 McFarland (˜1.5×10^8 CFU/mL of Escherichia coli). These inocula were diluted 1:100 in sterile normal saline and 100 μl of these diluted inocula was dispensed in each well. The final bacterial inoculum reached in each well was equal 5×10^5 CFU/mL. The plates were incubated at 37° C. for 24 hrs. The MIC was read visually as the lowest concentration of ciprofloxacin inhibiting the growth of bacteria as evident from the absence of turbidity.

[3] = tested on: Staphylococcus aureus Mupr-1 (Mde A overexpressing); assay: Mde A efflux pump inhibition, broth checkerboard combination with mupirocin; details: for MIC: Staphylococcus aureus
Method: Staphylococcus aureus Mupr-1 (Mde A overexpressing) was prepared in-house from SA-1199-Wild type clinical isolate which was gifted by Prof. Dr G. W. Kaatz (Wayne State University School of Medicine, Detroit, Mich., USA) by serially passaging SA-1199 strain on mupirocin. Combination studies were performed by a broth checkerboard method. A series of twofold dilutions of test mupirocin in Muller Hinton Broth (pH 7.0) was tested in combination with twofold dilutions of boeravinone B in 96-well microtiter plates. The final concentrations of mupirocin ranged from 0.03 mg/L/ml to 64 mg/L and for boeravinone B from 0.8 mg/L to 50 mg/L. Bacterial inocula were prepared by adjusting the inoculum density of the overnight grown Staphylococcus aureus Mup^r-1 (Mde A overexpressing) to 0.5 McFarland (˜1.5×10^8 CFU/mL of Escherichia coli). Mde A overexpressing derivative S. aureus strain was prepared in lab upon mupirocin treatment (Mup^r-1) from S. aureus strain ATCC No. 29213 (American type culture collection Manassas, Va., USA). These inocula were diluted 1:100 in sterile normal saline and 100 μl of these diluted inocula was dispensed in each well. The final bacterial inoculum reached in each well was equal 5×10^5 CFU/mL. The plates were incubated at 37° C. for 24 hrs. The MIC was read visually as the lowest concentration of mupirocin inhibiting the growth of bacteria as evident from the absence of turbidity. […]

[4] = at 25 μM concentration of boeravinone B

## CC[C@H]1OC(=O)[C@H](C)[C@@H](O[C@H]2C[C@@](C)(OC)[C@@H](O)[C@H](C)O2)[C@H](C)[C@@H](O[C@@H]2O[C@H](C)C[C@H](N(C)C)[C@H]2O)[C@](C)(O)C[C@@H](C)C(=O)[C@H](C)[C@@H](O)[C@]1(C)O [Erythromycin, erythromycin, reference compound]
[1]; Staphylococcus aureus, 24 h, read-out: MIC of Erythromycin Alone
  MIC: 64 µg/mL

## Cc1c(O)cc2oc3c(c(=O)c2c1O)-c1ccccc1OC3O (centres unmarked) [Boeravinone B, 6,9,11-trihydroxy-10-methyl[1]benzopyrano[3,4-b][1]benzopyran-12(6H)-one]
[1]; [4]
  reduction of MIC of erythromycin: 4 folds
[1]; combination with erythromycin, MDR S. aureus, concentration not given
  enhancement in antibacterial activity of erythromycin: 4 folds
[1]; compound concentration 0.7 μM
  MIC of Erythromycin in presence of compound: 64 µg/mL
[1]; compound concentration 1.5 μM
  MIC of Erythromycin in presence of compound: 64 µg/mL
[1]; compound concentration 3.12 μM
  MIC of Erythromycin in presence of compound: 64 µg/mL
[1]; compound concentration 6.25 μM
  MIC of Erythromycin in presence of compound: 64 µg/mL
[1]; compound concentration 12.5 μM
  MIC of Erythromycin in presence of compound: 32 µg/mL
[1]; compound concentration 25 μM
  MIC of Erythromycin in presence of compound: 16 µg/mL
[1]; compound concentration 50 μM
  MIC of Erythromycin in presence of compound: 16 µg/mL
[1]; in combination with erythromycin
  MEC4 (minimum effective concentration of boeravinone B that brings about 4 fold reduction in the MIC of erythromycin): 25 µM
[2]; at highest concentration (50 μM) of boeravinone B
  decrease of the MIC of ciprofloxacin: 8 folds
[2]; combination with ciprofloxacin, MDR S. aureus, concentration not given
  enhancement in antibacterial activity of ciprofloxacin: 8 folds
[2]; compound concentration 0.7 μM
  MIC of ciprofloxacin in presence of compound: 8 µg/mL
[2]; compound concentration 1.5 μM
  MIC of ciprofloxacin in presence of compound: 8 µg/mL
[2]; compound concentration 3.12 μM
  MIC of ciprofloxacin in presence of compound: 4 µg/mL
[2]; compound concentration 6.25 μM
  MIC of ciprofloxacin in presence of compound: 4 µg/mL
[2]; compound concentration 12.5 μM
  MIC of ciprofloxacin in presence of compound: 2 µg/mL
[2]; compound concentration 25 μM
  MIC of ciprofloxacin in presence of compound: 1 µg/mL
[2]; compound concentration 50 μM
  MIC of ciprofloxacin in presence of compound: 1 µg/mL
[2]
  MEC4 (minimum effective concentration of compound that brings about 4 fold reduction in the MIC of Ciprofloxacin): 12.5 µM
[3]; read-out: MIC of mupirocin in presence of compound, compound concentration 0.7 μM
  MIC: 256 µg/mL
[3]; read-out: MIC of mupirocin in presence of compound, compound concentration 1.5 μM
  MIC: 256 µg/mL
[3]; read-out: MIC of mupirocin in presence of compound, compound concentration 3.12 μM
  MIC: 256 µg/mL
[3]; read-out: MIC of mupirocin in presence of compound, compound concentration 6.25 μM
  MIC: 256 µg/mL
[3]; read-out: MIC of mupirocin in presence of compound, compound concentration 12.5 μM
  MIC: 128 µg/mL
[3]; read-out: MIC of mupirocin in presence of compound, compound concentration 25 μM
  MIC: 64 µg/mL
[3]; read-out: MIC of mupirocin in presence of compound, compound concentration 50 μM
  MIC: 64 µg/mL
[3]; [4]
  reduction of MIC of mupirocin: 4 fold
[3]; combination with mupirocin, MDR S. aureus, concentration not given
  enhancement in antibacterial activity of mupirocin: 4 folds
[3]; in combination with mupirocin
  MEC4 (minimum effective concentration of boeravinone B that brings about 4 fold reduction in the MIC of Mupirocin): 25 µM

## C/C(=C\C(=O)OCCCCCCCCC(=O)O)C[C@@H]1OC[C@H](C[C@@H]2O[C@H]2[C@@H](C)[C@H](C)O)[C@@H](O)[C@H]1O [mupirocin, reference compound]
[3]; 24 h, read-out: MIC of mupirocin Alone, mupirocin alone, S. aureus Mupr-1, 24 hrs
  MIC: 256 µg/mL

## O=C(O)c1cn(C2CC2)c2cc(N3CCNCC3)c(F)cc2c1=O [Ciprofloxacin, ciprofloxacin, reference compound]
[2]; Staphylococcus aureus, 24 h, read-out: MIC Ciprofloxacin Alone
  MIC: 8 µg/mL

## O=C(/C=C/C=C/c1ccc2c(c1)OCO2)N1CCCCC1 [Piperine, reference compound]
[2]; compound concentration 0.7 μM
  MIC of ciprofloxacin in presence of compound: 8 µg/mL
[2]; compound concentration 1.5 μM
  MIC of ciprofloxacin in presence of compound: 8 µg/mL
[2]; compound concentration 3.12 μM
  MIC of ciprofloxacin in presence of compound: 8 µg/mL
[2]; compound concentration 6.25 μM
  MIC of ciprofloxacin in presence of compound: 8 µg/mL
[2]; compound concentration 12.5 μM
  MIC of ciprofloxacin in presence of compound: 8 µg/mL
[2]; compound concentration 25 μM
  MIC of ciprofloxacin in presence of compound: 4 µg/mL
[2]; compound concentration 50 μM
  MIC of ciprofloxacin in presence of compound: 4 µg/mL
[2]
  MEC4 (minimum effective concentration of compound that brings about 4 fold reduction in the MIC of Ciprofloxacin): >50 µM
